Assays:
[1] = biological target: T1, cyclooxygenase (Ovis aries, UniProt P05979); assay: Cyclooxygenase Assay (polarigraphic oxygen consumption, lipid-depleted sheep seminal vesicle microsomes); assay type: biochemical; details: 30° C., 2 min incubation, ammonium arachidonate substrate
T1 construct: Lipid-depleted Sheep Seminal Vesicle Microsome Suspension; from tissue; host or cells: sheep seminal vesicle microsomes (lipid-depleted powder, detergent solubilized)
T1 sequence (P05979 25-600): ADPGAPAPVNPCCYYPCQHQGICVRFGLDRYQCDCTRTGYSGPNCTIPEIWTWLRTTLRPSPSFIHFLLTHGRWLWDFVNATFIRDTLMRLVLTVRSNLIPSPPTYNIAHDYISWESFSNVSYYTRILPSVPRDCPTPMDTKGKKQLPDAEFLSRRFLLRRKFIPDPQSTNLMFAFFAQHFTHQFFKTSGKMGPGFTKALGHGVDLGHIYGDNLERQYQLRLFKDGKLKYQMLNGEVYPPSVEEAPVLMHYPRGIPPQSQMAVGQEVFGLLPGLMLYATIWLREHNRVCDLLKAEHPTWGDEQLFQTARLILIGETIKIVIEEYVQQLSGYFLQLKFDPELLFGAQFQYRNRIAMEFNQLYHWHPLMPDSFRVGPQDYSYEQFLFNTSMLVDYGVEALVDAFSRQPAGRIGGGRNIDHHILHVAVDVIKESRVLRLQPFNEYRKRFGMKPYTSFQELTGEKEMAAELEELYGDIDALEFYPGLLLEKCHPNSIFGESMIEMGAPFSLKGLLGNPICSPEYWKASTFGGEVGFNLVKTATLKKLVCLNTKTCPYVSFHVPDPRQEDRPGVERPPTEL
Protocol: Cyclooxygenase activity was determined polarigraphically with detergent solubilized, lipid-depleted sheep seminal vesical microsomes. Addition of test articles that inhibit cyclooxygenase, including reference standards, cause a decrease in the rate of oxygen consumption in the reactions. Cyclooxygenase activity is determined using the following procedures:
I. Preparation of Test Materials
1. Lipid-Depleted Sheep Seminal Vesicle Microsomal Powder. This preparation follows the procedure of G. Graff et al. J. Biol. Chem. 253, 7662 (1978).
2. Ammonium Arachidonate Solution. A 250 μL aliquot of 20.0 mM arachidonic acid in absolute ethanol and a 50-μL aliquot of concentrated ammonium hydroxide is placed into a test tube. The solvent and excess ammonium hydroxide is evaporated under a stream of nitrogen at room temperature. The ammonium arachidonate residue is dissolved in 500 μL of 100 mM 2-amino-2-hydroxymethyl-1,3-propanediol hydrochloride (Tris HCl) buffer (pH 8.0) by using a vortex mixer. The final concentration of ammonium arachidonate (working solution) is 10.0 mM.
3. Enzyme Buffer 100 mM Tris HCl (pH 8.0) containing 2.0 mM phenol, 5.0 mM ethylenediaminetetraacetic acid (EDTA), 5.0 mM diethyldithiocarbamic acid and 1.0% Tween 20.
4. Reaction Buffer 100 mM Tris HCl (pH 8.0) containing 2.0 μM hematin and 1.0 mM phenol (prepared daily).
5. Detergent Solubilized Lipid-depleted Sheep Seminal Vesicle Microsome Suspension. Ten mg (solid) of lipid-depleted microsomal powder from sheep seminal vesicles is suspended in 1.0 mL of enzyme buffer and kept at 4° C. until used.
6. Solutions of Test (Formula I compound) or Reference Articles. Test and reference articles are dissolved in the reaction buffer prepared in 4) or a solvent that will not interfere with cyclooxygenase activity, e.g., dimethylsulfoxide, ethanol or acetone.
II. Cyclooxygenase Inhibition Assay
Three mL of the reaction buffer and 20 μL of the microsomal enzyme suspension are placed in a Yellow Springs Instrument (YSI) oxygen chamber where the temperature is maintained at 30° C. by means of a temperature controlled circulating water bath. Aliquots of the solutions containing ≤[…] of Formula I compound (test article) or reference article [see 6) above] are added to the YSI chamber and incubated for 2 minutes. The reaction is initiated by addition of 30 μL of the 10 mM ammonium arachidonate solution and cyclooxygenase activity determined polarigraphically using an oxygen electrode by measuring the rate of oxygen consumption [Cook et al., Anal. Biochem 96 341-51 (1979) and Cook and Lands, Can. J. Biochem. 53, 1220-1231 (1975)].
Test, reference, and control articles were evaluated in triplicate. Cyclooxygenase activity was determined from the slope (mv/unit time) of the recorder tracing with 1 mV being proportional to a 2.34 μM change in oxygen concentration.
The IC50 (concentration of test or reference article that inhibits the reaction by 50%) was calculated from cumulative plots relating the extent of inhibition of cyclooxygenase activity in control group assays to increasing concentrations of test article. Where no inhibition exists, the IC50 is expressed as greater than the highest concentration of the drug tested.

[2] = biological target: T2, 5-lipoxygenase (Homo sapiens, UniProt P09917); assay: 5-Lipoxygenase Assay (production of 5-HETE from arachidonic acid in polymorphonuclear leukocytes stimulated by A23187); assay type: cell-based; details: inhibition of production of 5-HETE, human PMN cells, calcium ionophore A23187, 37° C.
T2 construct: Polymorphonuclear leukocytes were obtained from whole human blood; endogenous in cells; host or cells: human polymorphonuclear leukocytes from whole blood, stimulated with A23187
T2 sequence (P09917 1-674): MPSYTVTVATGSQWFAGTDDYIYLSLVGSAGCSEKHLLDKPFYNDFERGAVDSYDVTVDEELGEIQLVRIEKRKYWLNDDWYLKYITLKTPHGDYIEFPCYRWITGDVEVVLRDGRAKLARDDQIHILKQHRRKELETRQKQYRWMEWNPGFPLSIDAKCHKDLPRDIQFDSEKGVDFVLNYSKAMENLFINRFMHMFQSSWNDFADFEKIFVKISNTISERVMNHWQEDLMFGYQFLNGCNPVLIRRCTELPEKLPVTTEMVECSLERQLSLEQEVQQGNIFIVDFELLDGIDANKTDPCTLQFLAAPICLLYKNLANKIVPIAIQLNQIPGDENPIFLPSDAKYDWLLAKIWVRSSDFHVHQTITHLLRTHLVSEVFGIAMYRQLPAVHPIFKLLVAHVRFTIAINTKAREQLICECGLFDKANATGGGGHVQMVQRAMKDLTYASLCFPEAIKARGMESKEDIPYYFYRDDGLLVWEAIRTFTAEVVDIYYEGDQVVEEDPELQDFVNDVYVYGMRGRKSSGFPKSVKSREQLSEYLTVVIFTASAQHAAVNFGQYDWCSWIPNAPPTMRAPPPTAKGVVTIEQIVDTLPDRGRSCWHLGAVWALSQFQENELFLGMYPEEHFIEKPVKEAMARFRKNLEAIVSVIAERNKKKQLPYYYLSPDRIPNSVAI
Protocol: The production of 5-HETE from arachidonic acid in human polymorphonuclear leukocytes stimulated by the calcium ionophore A23187 (Calbiochemicals) was measured by reverse phase high pressure liquid chromatography. This procedure is a modification of the procedure of Sun and McGuire, PROSTAGLANDINS, 26, 211-221 (1983). Addition of substances to the test system that inhibit 5-lipoxygenases cause a decrease in the production of 5-HETE and is thus determined in comparison to reference and control articles also added to the reaction system.
Polymorphonuclear leukocytes were obtained from whole human blood by the procedure of Skoog and Beck, BLOOD, 11, 436-454 (1956). […] The tube is incubated for an additional 10 min at 37° C. and the incubations terminated by addition of 1.5 mL of acetone and cooling to 0° C. 13-Hydroxyoctadecatrienoic acid (13-HODT) (5 μL of 0.2 mM methanolic solution) is added for an internal reference standard. The tube is stored at -20° C. under argon for 4-18 hr. Centrifugation at 1000×g for 10 min causes protein precipitate to form a pellet. The acetone layer is evaporated under a stream of nitrogen and the resultant lipid residue containing the arachidonic acid metabolites and 13-HODT is dissolved in 0.5 mL of methanol and stored at -20° C. until analyzed by high-pressure liquid chromatography (HPLC).
For analysis, a 150-μL aliquot of the methanol solution is evaporated under a stream of argon. The residue is reconstituted with 100 μL of a 1:1 methanol-water mixture and sonified for 15-20 seconds and the mixture analyzed by HPLC (C18 reversed phase Econophere column, methanol:water:acetic acid 79:25:0.2 v/v/v used for elution). Test, reference, and control articles are evaluated in duplicate. The inhibition is reported as that concentration which will inhibit by 50% the production of 5-HETE.

[3] = system: guinea pig skin; assay: UV-Erythema in Guinea Pigs; assay type: in vivo; design: key: +: active; -: inactive; details: topical, 50 μL of cream with 1.0 mg test article per 1 g, immediately after UV exposure; active = composite score significantly lower than control, Dunnett's t-test p≤0.05
Protocol: I. Preparation of Formulation (cream)
All drugs tested were prepared by thoroughly incorporating 1.0 mg of the test article into 1 g of a pH 7.0 cream vehicle of the following composition.
methyl glucose sesquistearate 1.6%
methyl gluceth-20 sesquistearate 2.4%
emulsifying wax, N.F. 5.0%
mineral oil (heavy), U.S.P. 1.0%
white petrolatum, U.S.P. 5.0%
stearic acid, U.S.P. 2.5%
sodium benzoate, N.F. 0.1%
magnesium aluminum silicate 1.5%
deionized water, pH 7.0 64.8%
The preparations were packed into 1-cc plastic syringes.
II. Pharmacological Assay
The backs of female, English short hair guinea pigs (250-500 g) were shaved and depilated with Nair®. Control and treated groups each consisted of 5 animals, and selection of the animals and the control and treatment groups was achieved by random procedures. A rubber sheet with three one-half inch holes spaced one-half inch apart was draped over backs of the guinea pigs. The guinea pigs were then exposed to ultraviolet (UV) light (Hanovia Model 10, ~650-800 μW/cm^2) for 15 seconds by holding the animals against the light source. Fifty μL of the test drug or reference drug (indomethacin or bromfenac) preparation were immediately rubbed onto the skin, either on the area exposed to UV light or to an area adjacent to the UV light exposed skin. The degree of erythema for each exposed area was scored at various times following exposure according to the following scale:
1=slight redness with faint outline
2=moderate to marked redness with distinct outline
The score was totaled for each guinea pig (maximum score is 6). The Dunnett's t-test was used to determine significant (p≤0.05) differences from the control (placebo treated) group.

SMILES | IC50 [1] [µM] | IC50 [2] [µM] | U.V. erythema (+ = active, - = inactive) [3]
CCCC[C@@H]1S[C@H](c2cccc(Oc3ccccc3)c2)N(CCCCc2ccc(C(=O)OCC)cc2)C1=O (relative stereo) [Example 6, 4-[4-[5-Butyl-4-oxo-2-(3-phenoxyphenyl)-3-thiazolidinyl]butyl]benzoic acid ethyl ester] | 0.05 |  | 
CCCCC1SC(c2cccc(Oc3ccccc3)c2)N(CCc2ccccn2)C1=O (stereo not shown) [Example 18, 5-Butyl-2-(3-phenoxyphenyl)-3-[2-(2-pyridinyl)ethyl]-4-thiazolidinone] | 0.12 | 7.8 | 
CCCC[C@@H]1S[C@@H](c2cccc(Oc3ccccc3)c2)N(CCCCc2ccc(C(=O)OCC)cc2)C1=O (relative stereo) [Example 5, 4-[4-[5-Butyl-4-oxo-2-(3-phenoxyphenyl)-3-thiazolidinyl]butyl]benzoic acid ethyl ester] | 0.07 |  | 
CCCCC1SC(c2cccc(Oc3ccccc3)c2)N(CCc2ccc(O)cc2)C1=O (stereo not shown) [Example 59, 5-Butyl-3-[2-(4-hydroxyphenyl)ethyl]-2-(3-phenoxyphenyl)-4-thiazolidinone] |  |  | +
CCCCC1SC(c2cccc(Oc3ccccc3)c2)N(CCCCCCC(=O)OCC)C1=O (stereo not shown) [Example 55, 5-Butyl-4-oxo-2-(3-phenoxyphenyl)-3-thiazolidineheptanoic acid ethyl ester] | 1 | ~10 | 

More lines, main results first:

IC50 [1] [µM] | IC50 [2] [µM] | SMILES | U.V. erythema (+ = active, - = inactive) [3]
1.6 | 3.5 | CCCCC1SC(c2cccc(Oc3ccccc3)c2)N(CCCOc2ccc(C(=O)O)cc2)C1=O (stereo not shown) [Example 30, 4-[3-[5-Butyl-4-oxo-2-(3-phenoxyphenyl)-3-thiazolidinyl]propoxy]benzoic acid] | 
8 | 5 | CCCC[C@@H]1S[C@H](c2cccc(Oc3ccccc3)c2)N(c2ccc(O)cc2)C1=O (relative stereo) [Example 3, 5-Butyl-3-(4-hydroxyphenyl)-2-(3-phenoxyphenyl)-4-thiazolidinone] | 
2.2 | 6.4 | CCCC[C@@H]1S[C@@H](c2cccc(C(=O)c3ccccc3)c2)N(c2ccc(O)cc2)C1=O (relative stereo) [Example 22, 2-(3-Benzoylphenyl)-5-butyl-3-(4-hydroxyphenyl)-4-thiazolidinone] | 

— patent US5061720A, “Substituted-4-thiazolidinone derivatives” (A. H. Robins Company, Inc., priority 1989, dated 1991)
